Laboratory results reported in publication PMC10065799, “High-throughput profiling of sequence recognition by tyrosine kinases and SH2 domains using bacterial peptide display” (eLife, 2023).

Columns and labels:
EPHB2 kinase domain = experiment: pTyr-Var library bacterial peptide display kinase screen (enrichment scores); type: biochemical, human; conditions: sheet EPHB2;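 also: log2 fold change in enrichment of variant over reference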
EPHB1 kinase domain = experiment: as above; type: biochemical, human; conditions: for Screen: sheet EPHB1, effect of the variant peptide relative to its reference peptide in the pTyr-Var library screen (enrichment scores); for Screen (variant relative to reference peptide, measured in the pTyr-Var library screen): sheet "EPHB1", variant seq vs reference seq, bacterial peptide display enrichment
c-Src kinase domain [1] = target: T1, c-Src kinase domain (Homo sapiens, UniProt P12931); experiment: as above; type: biochemical; conditions: sheet "Src"
Fer kinase domain = experiment: as above; type: biochemical, mouse; conditions: sheet "Fer"
c-Src kinase domain [2] = target: T1, c-Src kinase domain; experiment: RP-HPLC assay to measure peptide phosphorylation kinetics; type: biochemical; conditions: purified peptide substrate
c-Abl kinase domain = target: T2, c-Abl kinase domain (Mus musculus, UniProt P00520); experiment: pTyr-Var library bacterial peptide display kinase screen (enrichment scores); type: biochemical;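 also: log2 fold change in enrichment of variant over reference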
T2 sequence (P00520 242-493 limits assumed): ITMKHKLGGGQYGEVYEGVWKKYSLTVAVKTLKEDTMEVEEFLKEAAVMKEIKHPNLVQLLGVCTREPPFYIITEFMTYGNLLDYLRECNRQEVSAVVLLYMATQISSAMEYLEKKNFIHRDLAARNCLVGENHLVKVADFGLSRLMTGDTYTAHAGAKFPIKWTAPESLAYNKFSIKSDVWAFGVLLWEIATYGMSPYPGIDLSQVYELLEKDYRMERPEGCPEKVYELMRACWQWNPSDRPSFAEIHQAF

c-Src kinase domain [3] = target: T1, c-Src kinase domain; experiment: ADP-Quest continuous fluorimetric kinase assay (Michaelis-Menten parameters and initial rates); type: biochemical; conditions: ADP-Quest assay, c-Src kinase domain 10 nM, 100 μM ATP, 37 °C; three to five replicates; error = standard error of global Michaelis-Menten fit
Excerpt: A fluorescence-based assay from Eurofins (ADP Quest) was used to measure the Michaelis-Menten kinetic parameters for phosphorylation of the consensus peptides by purified tyrosine kinase domains. In this assay, ADP production as a result of kinase activity is coupled to the production of resorufin, a fluorophore that emits signal at 590 nm. For all experiments, the assay reactions were set up as described in the provided assay kit protocol, in a 384 well plate format. The peptide solutions were serially diluted in 100 mM Tris, pH 8.0, and the kinases were diluted to 50 nM in buffer (10 mM HEPES, 100 mM NaCl, 1 mM TCEP, 5 mM MgCl2, 10% (v/v) glycerol). The final reaction mixtures contained 10 nM of kinase with 100 μM of ATP. Reactions were initiated with the addition of 1 mM ATP into a 50 μL reaction mixture for a final concentration of 100 μM ATP. Phosphorylation reaction progress was monitored by measuring fluorescence at excitation 530 nm and emission 590 nm every 2 min at 37 °C on a plate reader (BioTek Synergy Neo 2). The fluorescence units (RFU) were converted to μM ADP by comparison to a standard curve, and the initial rates were extracted from the linear regime of the reaction progress curves. Initial rates were also measured for samples containing each kinase but lacking a peptide substrate, to account for background ATP hydrolysis. This background rate was subtracted from the rates measured in the presence of peptide. The subtracted rates were plotted as a function of substrate concentration and fit to the Michaelis-Menten equation to extract kcat and KM values.

[4] = effect of variant peptide relative to its reference peptide in the pTyr-Var library screen (enrichment scores)
[5] = effect of the variant peptide relative to its reference peptide in the pTyr-Var library screen
[6] = value of the variant peptide against its reference peptide in the pTyr-Var library screen with Fer
[7] = variant peptide versus its reference peptide in the pTyr-Var library screen
[8] = variant peptide relative to its reference peptide, pTyr-Var library screen enrichment
[9] = fig5-data2, sheet "Abl", Screen for the variant/reference peptide pair, pTyr-Var library
[10] = effect of the variant relative to its reference peptide in the pTyr-Var library screen
[11] = sheet "Abl", effect of variant peptide relative to its reference peptide in pTyr-Var library screen (enrichment)

| Substance | Screen (EPHB2 kinase domain; [4]) | Screen (EPHB1 kinase domain) | Screen (c-Src kinase domain [1]; [5]) | Screen (Fer kinase domain; [6]) | Screen (c-Src kinase domain [1]; [7]) | further results |
| --- | --- | --- | --- | --- | --- | --- |
| PFRKLYESVKK [MKI67_Y241_W238R] | -2.876 | -3.688 | -1.776 | -1.869 | – | – |
| GQRDLYSGLNE [CD3E_Y199_Q204E] | -0.7383 | -0.9821 | -0.3824 | -1.295 | – | – |
| NTFENYWPFFQ [GATM_Y103_K102N_YF] | 3.46 | 4.344 | 2.256 | – | – | – |
| KVASVYEALGF [NT5C_Y65_P68L] | -0.4355 | 1.12 | – | -0.5868 | 0.2966 | – |
| SPFMLYQFLKQ [RPAP3_Y567_D564Y_YF] | 1.841 | 2.24 | – | – | -1.029 | Screen (Fer kinase domain; [8]): -1.212 |
| Ac-SGDITYGQFAQ-NH2 [PLCG1_Y210] | – | – | – | – | – | Phosphorylation Rate (c-Src kinase domain [2]): 2.121 s⁻¹ |
| LDTFIYDAAVL [GRIN2A_Y730_A727T] | -0.5027 | -0.673 | 0.2901 | -0.1876 | – | – |
| AQQPIYIRVEG [NLRP7_Y318_V319I] | -2.079 | -2.185 | – | – | -2.214 | – |
| LFEDCYLLGTS [ASS1_Y87_R86C_YF] | -0.8272 | -1.767 | 2.612 | – | – | – |
| PMFHSYVSLPF [PLXNA2_Y293_K289M] | 0.8579 | 0.7871 | – | – | – | Screen (c-Abl kinase domain; [9]): 0.1709 |
| DAKTIYDFTDT [PDK1_Y136_A134T] | -1.665 | – | – | -1.776 | -0.8148 | – |
| FQNSLYAPDFS [FAM92A_Y226_R222Q_YF] | 1.651 | 0.991 | 0.8192 | 1.873 | – | – |
| QKTGDYFDLFG [PTPN11_Y62_N58K_YF] | -1.66 | -1.083 | – | – | -1.277 | – |
| LLIMEYAKFGS [RET_Y806_V804M_YF] | -0.7138 | -1.009 | – | – | 0.7851 | – |
| RGKLFYQEVPA [METTL11B_Y76_A72G] | -1.191 | -1.027 | – | -1.394 | – | – |
| RGDCTYAPLLG [AR_Y269_M268T] | 0.1305 | 0.2378 | 0.1809 | -1.638 | – | – |
| QLQQAYQEAFE [YWHAZ_Y149_S145L] | – | – | – | – | – | Screen (EPHB2 kinase domain; [10]): 1.539; Screen (Fer kinase domain; [8]): 1.389; Screen (c-Abl kinase domain; [11]): 2.922 |
| Ac-IGEGTYRTVFK-NH2 [CDK5-Y15-G16R] | – | – | – | – | – | Phosphorylation Rate (c-Src kinase domain [2]): 0.219 s⁻¹ |

| Substance | Screen (EPHB2 kinase domain; [4]) | Screen (EPHB1 kinase domain) | Screen (c-Src kinase domain [1]; [5]) | Screen (Fer kinase domain; [6]) | Screen (c-Src kinase domain [1]; [7]) | further results |
| --- | --- | --- | --- | --- | --- | --- |
| IEEGTYGVAFR [CDK11B_Y449_V452A_YF] | -1.778 | -1.792 | -0.1184 | -0.4849 | – | – |
| LENSTYQFIHV [CRB1_Y760_R764H_YF] | 0.62 | 0.7891 | 0.1019 | 0.6151 | – | Screen (c-Abl kinase domain; [9]): -1.13 |
| FSPCDYQPCLA [TNS1_Y798_Y796C_YF] | – | – | – | – | – | Screen (EPHB2 kinase domain; [10]): 3.039; Screen (variant relative to reference peptide, measured in the pTyr-Var library screen) (EPHB1 kinase domain): 3.912 |
| MVIPNYSSWTE [UROC1_Y185_R188W] | – | – | – | – | – | Screen (EPHB2 kinase domain; [10]): 4.793; Screen (variant relative to reference peptide, measured in the pTyr-Var library screen) (EPHB1 kinase domain): 4.533; Screen (Fer kinase domain; [8]): 2.023 |
| LNEAVYTKMMT [G6PD_Y401_P396L] | 2.035 | 1.441 | 0.3249 | 1.268 | – | – |
| ACCLLYCGDVV [TUBA4A_Y319_R320C] | – | – | – | – | -0.4326 | Screen (EPHB2 kinase domain; [10]): 3.709; Screen (variant relative to reference peptide, measured in the pTyr-Var library screen) (EPHB1 kinase domain): 4.284; Screen (Fer kinase domain; [8]): 2.253; Screen (c-Abl kinase domain; [11]): -0.5266 |
| KLPFLYDDPFS [GPX2_Y127_P126L_YF] | 2.625 | 2.862 | – | 1.127 | – | – |
| PLDNLYAEPAV [PRPS1_Y146_V142L] | 0.4426 | 0.8585 | – | 0.1056 | 0.376 | – |
| QSSALYEDHFL [ASS1_Y83_R86H_YF] | 1.176 | 0.2982 | 0.1278 | 0.8014 | – | – |
| CGPLLYGLVHQ [PRKCG_Y122_S119P] | -0.1456 | 0.3123 | – | -0.6662 | -0.4426 | – |
| HNLDFYKMTTN [FGFR3_Y648_K650M_YF] | 0.0281 | -1.054 | -2.668 | -0.9943 | – | – |
| ITNLLYHLVGW [GBA_Y412_V414L] | -1.708 | -1.095 | -0.6312 | 0.1481 | – | – |
| RPPELYALMSD [ZAP70_Y569_C564R] | – | – | – | – | 1.184 | Screen (EPHB2 kinase domain; [10]): 1.779; Screen (variant relative to reference peptide, measured in the pTyr-Var library screen) (EPHB1 kinase domain): 2.108; Screen (c-Abl kinase domain; [11]): 3.577 |
| SSPQLYLVPFL [TAF4_Y652_P651L] | 2.197 | – | – | – | – | Screen (variant relative to reference peptide, measured in the pTyr-Var library screen) (EPHB1 kinase domain): 3.351 |
| Ac-GCDECIYGMFPFRRRG-NH2 [Src Consensus (P-5C, D+1 G), Src Consensus-related peptide with +1 Gly] | – | – | – | – | – | Km (c-Src kinase domain [3]): 97 ± 10 µM; kcat (c-Src kinase domain [3]): 4.4±0.2 s^–1 |
| PFGQWYESHFA [RPS8_Y113_R110G_YF] | 2.604 | 2.825 | – | – | 2.137 | Screen (Fer kinase domain; [8]): 2.253 |
| KLVQLYDVCTK [BTK_Y461_G462D] | 2.907 | 3.126 | 0.2967 | 2.534 | – | – |
